For data set [1], the system named is Mammalian orthoreovirus 1. The experiment in a line: Antiviral activity against Reovirus-1. It is filed as functional, organism-based.
Data set [2] deals with Punta Toro virus. Put plainly: Antiviral activity against Punta Toro virus. It is filed as functional, organism-based.
The test system of data set [3] is Vesicular stomatitis virus. The experiment in a line: Antiviral activity against Vesicular stomatitis virus. Format: functional, organism-based.
Data set [4] deals with Coxsackievirus B4. The experiment in a line: Antiviral activity against Coxsackievirus B4. Format: functional, organism-based.
For data set [5], the system named is Respiratory syncytial virus. The experiment in a line: Antiviral activity against Respiratory syncytial virus. It is filed as functional, organism-based.
The subject of data set [6] is Human alphaherpesvirus 2. Put plainly: Antiviral activity against Herpes simplex virus type 2. It is filed as functional, organism-based.
Data set [7] has as its system Vaccinia virus. The experiment in a line: Antiviral activity against Vaccinia virus. It is filed as functional, organism-based. The note with it: Orthopoxvirus vaccinia.
Data set [8] can be described thus: Cytotoxicity against MDCK cells assessed as minimum cytotoxic concentration after 72 hrs by MTS assay. It is filed as cell-based, Canis lupus familiaris. The conditions noted are these: dog.
For data set [9], the system named is MDCK. The experiment in a line: Cytotoxicity against MDCK cells after 72 hrs by MTS assay. It is filed as cell-based, Canis lupus familiaris. The conditions noted are these: dog.
Data set [10] deals with Sindbis virus. Put plainly: Antiviral activity against Sindbis virus. Format: functional, organism-based.
Data set [11] concerns Human alphaherpesvirus 1. The experiment in a line: Antiviral activity against Herpes simplex virus type 1. It is filed as functional, organism-based.
Data set [12] relates to Influenza A virus (A/udorn/1972(H3N2)). Format: cell membranes. The conditions noted are these: 100 uM.
Data set [13] has as its system Human respirovirus 3. Put plainly: Antiviral activity against Parainfluenza-3 virus. It is filed as functional, organism-based.
Data set [14] has as its system Feline coronavirus. Put plainly: Antiviral activity against Feline coronavirus. Format: functional, organism-based.

We go through eleven molecules from ChEMBL document CHEMBL3085678, “3-Azatetracyclo[5.2.1.1(5,8).0(1,5)]undecane derivatives: from wild-type inhibitors of the M2 ion channel of influenza A virus to derivatives with potent activity against the V27A mutant” (J Med Chem, 2013).

Active and inactive are the calls of the source. The calls are words filed in the database; no cut-off is given here. A value given as a limit tells only on which side of the number the result lay.

For `CN1CC23CC4(C)CC2(C1)CC4(C)C3`, the result in data set [1], in [2], in data set [3], in data set [4], in [5] and in data set [6] was inactive. Besides, the outcome in [7], in [10], in data set [11], in data set [13] and in data set [14] was inactive. In data set [8], the MCC at 72 h was no less than 20 µM. In data set [9], this molecule returned a CC50 of 49 µM. For the same molecule, the inhibition in [12] stood at 87.9%.
In the case of `CCC12CC34CN(C(=N)N)CC3(C1)CC2(CC)C4`, the outcome in data set [1], in data set [2], in data set [3], in data set [4], in data set [5] and in data set [6] was inactive. For the same molecule, the outcome in data set [7], in data set [10], in data set [11], in [13] and in [14] was inactive. Also, the MCC at 72 h in data set [8] was 4 µM. This molecule also displayed a CC50 in data set [9] of 6.2 µM. Also, in data set [12], the inhibition was 42.8%.
As to `CC12CC3CC1(C)CC3(CN)C2`, the outcome in data set [1], in data set [2], in data set [3], in data set [4], in data set [5] and in data set [6] was inactive. For the same molecule, the result in data set [7], in data set [10], in data set [11], in [13] and in [14] was inactive. For the same molecule, the inhibition in [12] came out at 97.3%.
Consider `NCC12C3CCC4C3C3C(CCC31)C42`, for which the outcome in data set [1], in [2], in [3], in data set [4], in data set [5] and in [6] was inactive. For the same molecule, the result in data set [7], in data set [10], in data set [11], in data set [13] and in [14] was inactive. The molecule also showed an inhibition in data set [12] of 12.8%.
Regarding `CN1CC23CC4CC2(CC4C3)C1`, the outcome in data set [1], in [2], in data set [3], in [4], in data set [5] and in data set [6] was inactive. The result in data set [7], in data set [10], in [11], in data set [13] and in data set [14] was inactive. The MCC at 72 h in data set [8] was no less than 100 µM. Moreover, the CC50 in data set [9] was greater than 100 µM. The same molecule had an inhibition in data set [12] of 88.3%.
`CCC12CC34CNCC3(C1)CC2(CC)C4`: the result in data set [1], in data set [2], in data set [3], in data set [4], in data set [5] and in data set [6] was inactive. Moreover, the result in data set [7], in data set [10], in data set [11], in data set [13] and in data set [14] was inactive. In addition, in data set [8], the MCC at 72 h came to 20 µM. The half-maximal cytotoxic concentration (CC50) in [9] is 49 µM. In data set [12], the inhibition is 65%.
As to `C1NCC23CC4CC12CC4C3`, the result in data set [1], in [2], in data set [3], in [4], in [5] and in data set [6] was inactive. The outcome in [7], in data set [10], in data set [11], in data set [13] and in [14] was inactive. In data set [8], the MCC at 72 h stood at 100 µM. The molecule also returned a half-maximal cytotoxic concentration (CC50) in data set [9] of no less than 59 µM. In [12], this molecule yielded an inhibition of 93.9%.
Take `NC12C3CCC4C3C3C(CCC31)C42`: the outcome in [1], in data set [2], in data set [3], in data set [4], in data set [5] and in data set [6] was inactive. Also, the outcome in data set [7], in [10], in data set [11], in data set [13] and in data set [14] was inactive. In data set [12], this molecule yielded an inhibition of 4.8%.
Regarding `C1=CC2C3C4C5C=CC4C24CNCC54C13`, the result in data set [1], in data set [2], in data set [3], in data set [4], in data set [5] and in data set [6] was inactive. Also, the outcome in data set [7], in data set [10], in data set [11], in [13] and in data set [14] was inactive.
For `CC12CC3CC1(C)CC3(N)C2`, the outcome in data set [1], in data set [2], in data set [3], in data set [4], in data set [5] and in data set [6] was inactive. The outcome in data set [7], in [10], in data set [11], in data set [13] and in data set [14] was inactive. In data set [12], this molecule gave an inhibition of 93.6%.
Turning to `C1C2C1C1C3C4C5C6CC6C4C14CNCC54C23` (stereo unspecified), the result in [1], in [2], in [3], in [4], in data set [5] and in [6] was inactive. Further, the outcome in [7], in data set [10], in data set [11], in [13] and in data set [14] was inactive. In [12], this molecule showed an inhibition of 86.5%.

As usually defined, the CC50 is the concentration giving 50% cytotoxicity. Low values mean greater toxicity to the cells, high ones lower toxicity to the cells. The term inhibition denotes the drop in the measured response relative to a control, in per cent. The low end stands for a weak effect, the high end for a strong effect.
